# Patent publication US11407719B2, “Anti-inflammatory agents” (Resverlogix Corp., priority 2009, dated 2022)
# How the values were obtained:
# hIL-6 mRNA = test: Quantification of hIL-6 mRNA; assay type: cell-based, human; parameters: key: Active: an active compound is one that causes a ≥20% inhibition in IL-6 mRNA at a concentration less than or equal to 10 μM; settings: IL-6 mRNA by real-time PCR; differentiated U937 cells, 1 h pretreatment, lipopolysaccharide stimulation 3 h; concentration ≤10 μM
# Description: In this example, […] in tissue culture cells was quantitated to measure the transcriptional inhibition of hIL-6 when treated with a compound of the invention.
# A human leukemic monocyte lymphoma cell line (U937) was plated (3.2×10^5 cells per well) in a 96-well plate in 100 μL RPMI-1640, and differentiated for 3 days prior to the addition of the compound of interest. The cells were pretreated for 1 h with the test compound prior to stimulation with lipolysaccharide from Escherichia coli. The cells were incubated at 37° C. for 3 h before the cells were harvested. At time of harvest, the spent media was removed from the cells and the cells were rinsed in 200 μL PBS. Cell lysis solution (70 μL) was added the cells in each well and incubated for 5-10 min at room temperature, to allow for complete cell lysis and detachment. mRNA was then prepared using the “mRNA Catcher PLUS plate” (Invitrogen), according to the protocol supplied. After the last wash, as much wash buffer as possible was aspirated without allowing the wells to dry. Elution buffer (E3, 70 μL) was then added to each well. mRNA was then eluted by incubating the mRNA Catcher PLUS plate with Elution Buffer for 5 min at 68° C. and then immediately placing the plate on ice.
# (§1) The eluted mRNA isolated was then used in a one-step quantitative real-time PCR reaction, using components of the Ultra Sense Kit together with Applied Biosystems primer-probe mixes. Real-time PCR data was analyzed, normalizing the Ct values for hIL-6 to an internal control, prior to determining the fold induction of each unknown sample, relative to the control.
# VCAM-1 mRNA = test: Quantification of hVCAM mRNA; assay type: cell-based, human; parameters: key: Active: an active compound is one that causes a ≥20% inhibition in VCAM-1 mRNA at a concentration less than or equal to 10 μM; -1 mRNA at a concentration less than or equal to 10 μM; settings: VCAM-1 mRNA by real-time PCR; HUVECs, 1 h pretreatment, tumor necrosis factor-α stimulation 24 h; concentration ≤10 μM
# Description: In this example, […] in tissue culture cells was quantitated to measure the transcriptional inhibition of hVCAM when treated with a compound of the invention.
# Human umbilical vein endothelial cells (HUVECs) were plated in a 96-well plate (4.0×10^3 cells/well) in 100 μL EGM media and incubated for 24 h prior to the addition of the compound of interest. The cells were pretreated for 1 h with the test compound prior to stimulation with tumor necrosis factor-α. The cells were incubated for an additional 24 h before the cells were harvested. At time of harvest, the spent media was removed from the HUVECs and rinsed in 200 μL PBS. Cell lysis solution (70 μL) was then added the cells in each well and incubated for ˜5-10 min at room temperature, to allow for complete cell lysis and detachment. mRNA was then prepared using the “mRNA Catcher PLUS plate” (Invitrogen), according to the protocol supplied. After the last wash, as much wash buffer as possible was aspirated without allowing the wells to dry. Elution buffer (E3, 70 μL) was then added to each well. mRNA was then eluted by incubating the mRNA Catcher PLUS plate with elution buffer for 5 min at 68° C. and then immediately placing the plate on ice.
# as §1, with “mRNA so” for “mRNA”, “hVCAM” for “hIL-6”
SMILES,Inhibition of IL-6 expression (hIL-6 mRNA),Inhibition of VCAM-1 expression (VCAM-1 mRNA)
"COc1cc(OC)c2c(=O)[nH]c(-c3cc(C)c(OCCN4C(=O)CCC4=O)c(C)c3)nc2c1 [1-(2-(4-(5,7-Dimethoxy-4-oxo-3,4-dihydroquinazolin-2-yl)-2,6-dimethylphenoxy)ethyl)pyrrolidine-2,5-dione]",Active,Active
"COc1cc(OC)c2c(=O)[nH]c(-c3ccc(N4CCN(C(C)=O)CC4)cc3)nc2c1 [2-(4-(4-Acetylpiperazin-1-yl)phenyl)-5,7-dimethoxyquinazolin-4(3H)-one]",Active,Active
"O=c1[nH]c(-c2ccc(N3CCN(CC(F)(F)F)CC3)cc2)nc2ccccc12 [2-(4-(4-(2,2,2-Trifluoroethyl)piperazin-1-yl)phenyl)quinazolin-4(3H)-one]",Active,Inactive
"COc1cc(OC)c2c(=O)[nH]c(-c3ccc(N4CCN(C(=O)C(C)C)CC4)cc3)nc2c1 [2-(4-(4-Isobutyrylpiperazin-1-yl)phenyl)-5,7-dimethoxyquinazolin-4(3H)-one]",Active,Active
"Cc1cc(-c2nc3cc(F)cc(N4CCCC4)c3c(=O)[nH]2)cc(C)c1OCCN1CCCC1 [2-(3,5-Dimethyl-4-(2-(pyrrolidin-1-yl)ethoxy)phenyl)-7-fluoro-5-(pyrrolidin-1-yl)quinazolin-4(3H)-one]",Active,Active
"CCCCCC(=O)N1CCN(c2ccc(-c3nc4cc(OC)cc(OC)c4c(=O)[nH]3)cc2)CC1 [2-(4-(4-Hexanoylpiperazin-1-yl)phenyl)-5,7-dimethoxyquinazolin-4(3H)-one]",Active,Inactive
"COc1cc(OC)c2c(=O)[nH]c(-c3ccc(N4CCN(C(=O)c5ccccc5)CC4)cc3)nc2c1 [2-(4-(4-Benzoylpiperazin-1-yl)phenyl)-5,7-dimethoxyquinazolin-4(3H)-one]",Active,Active
"COc1cc(OC)c2c(=O)[nH]c(-c3ccc(N4CCN(C(=O)C5CC5)CC4)cc3)nc2c1 [2-(4-(4-(Cyclopropanecarbonyl)piperazin-1-yl)phenyl)-5,7-dimethoxyquinazolin-4(3H)-one]",Active,Active
"COc1cc(OC)c2c(=O)[nH]c(-c3cc(C)c(OCCN4Cc5ccccc5C4)c(C)c3)nc2c1 [2-(4-(2-(Isoindolin-2-yl)ethoxy)-3,5-dimethylphenyl)-5,7-dimethoxyquinazolin-4(3H)-one]",Active,Active
"COc1cc(OC)c2c(=O)[nH]c(-c3ccc4[nH]c(CN(C)C)cc4c3)nc2c1 [2-(2-((Dimethylamino)methyl)-1H-indol-5-yl)-5,7-dimethoxyquinazolin-4(3H)-one]",Active,Active
"COc1cc(OC)c2c(=O)[nH]c(-c3ccc(N4CCN(C(=O)CC(F)(F)F)CC4)cc3)nc2c1 [5,7-Dimethoxy-2-(4-(4-(3,3,3-trifluoropropanoyl)piperazin-1-yl)phenyl)quinazolin-4(3H)-one]",Active,Active
"COc1cc(OC)c2c(=O)[nH]c(-c3ccc(N4C[C@@H](C)N[C@@H](C)C4)cc3)nc2c1 [2-(4-((3R,5S)-3,5-Dimethylpiperazin-1-yl)phenyl)-5,7-dimethoxyquinazolin-4(3H)-one]",Active,Active
"COc1cc(OC)c2c(=O)[nH]c(-c3ccc(N4CCCNCC4)cc3)nc2c1 [2-(4-(1,4-Diazepan-1-yl)phenyl)-5,7-dimethoxyquinazolin-4(3H)-one]",Active,Active
"COc1cc(OC)c2c(=O)[nH]c(-c3ccc(N4CCN(C(=O)c5ccc(F)cc5)CC4)cc3)nc2c1 [2-(4-(4-(4-Fluorobenzoyl)piperazin-1-yl)phenyl)-5,7-dimethoxyquinazolin-4(3H)-one]",Active,Active
"COc1cc(OC)c2c(=O)[nH]c(-c3cc(C)c(OC[C@@H]4CCC(=O)N4)c(C)c3)nc2c1 [(S)-2-(3,5-Dimethyl-4-((5-oxopyrrolidin-2-yl)methoxy)phenyl)-5,7-dimethoxyquinazolin-4(3H)-one]",Active,Active
"COc1cc(OC)c2c(=O)[nH]c(-c3cc(C)c(OCCN4CCOCC4)c(C)c3)cc2n1 [7-(3,5-dimethyl-4-(2-morpholinoethoxy)phenyl)-2,4-dimethoxy-1,6-naphthyridin-5(6H)-one]",Active,Active
"COc1cc(OC)c2c(=O)[nH]c(-c3cc(C)c(OCCN4CCOCC4)c(C)c3)nc2c1 [2-(3,5-dimethyl-4-(2-morpholinoethoxy)phenyl)-5,7-dimethoxyquinazolin-4(3H)-one]",Active,Active
"COc1cc(OC)c2c(=O)[nH]c(-c3ccc(Nc4cccnc4)cc3)nc2c1 [5,7-Dimethoxy-2-(4-(pyridin-3-ylamino)phenyl)quinazolin-4(3H)-one]",Active,Active
"CCN1CCN(Cc2ccc(-c3nc4cc(OC)cc(OC)c4c(=O)[nH]3)cc2)CC1 [2-(4-((4-ethylpiperazin-1-yl)methyl)phenyl)-5,7-dimethoxyquinazolin-4(3H)-one]",Active,Active
"COc1cc(OC)c2c(=O)[nH]c(-c3cc(C)c(OCCN4CCCCC4)c(C)c3)nc2c1 [2-(3,5-Dimethyl-4-(2-(piperidin-1-yl)ethoxy)phenyl)-5,7-dimethoxyquinazolin-4(3H)-one]",Active,Active
"COc1cc(OC)c2c(=O)[nH]c(-c3ccc(N4C[C@@H](C)N(C(C)=O)[C@@H](C)C4)cc3)nc2n1 [2-(4-((3R,5S)-4-Acetyl-3,5-dimethylpiperazin-1-yl)phenyl)-5,7-dimethoxypyrido[2,3-d]pyrimidin-4(3H)-one]",Active,–
"COc1cc(OC)c2c(=O)[nH]c(-c3ccc(CN4CCOCC4)cc3)nc2c1 [5,7-dimethoxy-2-(4-(morpholinomethyl)phenyl)quinazolin-4(3H)-one]",Active,–
"CNC1CCN(c2ccc(-c3nc4cc(OC)cc(OC)c4c(=O)[nH]3)cc2)C1 (centres unmarked) [5,7-Dimethoxy-2-(4-(3-(methylamino)pyrrolidin-1-yl)phenyl)quinazolin-4(3H)-one]",Active,–
"COc1cc(OC)c2c(=O)[nH]c(-c3ccc(N4CCCN(C(C)=O)CC4)cc3)nc2c1 [2-(4-(4-Acetyl-1,4-diazepan-1-yl)phenyl)-5,7-dimethoxyquinazolin-4(3H)-one]",Active,–
"COc1cc(OC)c2c(=O)[nH]c(-c3ccc(CN4CCC(N(C(C)=O)C(C)C)CC4)cc3)nc2c1 [N-(1-(4-(5,7-Dimethoxy-4-oxo-3,4-dihydroquinazolin-2-yl)benzyl)piperidin-4-yl)-N-isopropylacetamide]",Active,–
"COc1cc(OC)c2c(=O)[nH]c(-c3ccc(C4CCN(C(C)=O)CC4)cc3)nc2c1 [2-(4-(1-acetylpiperidin-4-yl)phenyl)-5,7-dimethoxyquinazolin-4(3H)-one]",Active,–
"COc1cc(OC)c2c(=O)[nH]c(-c3ccc(N4CCC(NC(C)C)CC4)cc3)nc2c1 [2-(4-(4-(Isopropylamino)piperidin-1-yl)phenyl)-5,7-dimethoxyquinazolin-4(3H)-one]",Active,–
